In patent publication US10023562B2, “Heteroaryl substituted pyridyl compounds useful as kinase modulators” (BRISTOL-MYERS SQUIBB COMPANY, priority 2012, dated 2018):

Test system: TLR2 induced IL-6 in peripheral blood mononuclear cells (PBMCs)
Assay: PBMC TLR2 Induced IL-6 Assay
Type: cell-based
Conditions: Homo sapiens, PBMC, 5 h, 10 μg/ml lipoteichoic acid for 5 hours, IL-6 by ELISA, values marked * are EC50, read-out: Cell EC50 (values marked *)
Protocol: PBMC TLR2 Induced IL-6 Assay Peripheral blood mononuclear cells (PBMCs) were isolated from human blood containing the anti-coagulant EDTA (2.5 mM) by centrifugation over a FICOLL® gradient. […] At the end of the culture, plates were centrifuged at 1800 rpm for 10 minutes to pellet the cells. Supernatants were harvested and analyzed for IL-6 levels by ELISA (BD Biosciences, San Jose, Calif.).

In order of rising EC50:
1. CC(C)(O)[C@H](F)CNC(=O)c1cnc(Nc2ncc(C#N)cc2F)cc1NC1CCC(F)C1 (stereo partly shown) [Example 114]  56 nM
2. CC(C)Nc1cc(Nc2ncc(C#N)c(N)n2)ncc1C(=O)NC[C@@H](F)C(C)(C)O [Example 136]  63 nM
3. CCNc1cc(Nc2ncc(C#N)cc2F)ncc1C(=O)NC[C@@H](F)C(C)(C)O [Example 66]  63 nM
4. CC(C)Nc1cc(Nc2ncc(C#N)cc2F)ncc1C(=O)N[C@H]1CC[C@H](C(C)(C)O)CC1 [Example 137]  72 nM
5. CC(C)(O)[C@H](F)CNC(=O)c1cnc(Nc2ncc(C#N)cc2F)cc1Nc1cccc(O)c1 [Example 125]  85 nM
6. COc1cccc(Nc2cc(Nc3ncc(C#N)cc3F)ncc2C(=O)NC[C@@H](F)C(C)(C)O)c1 [Example 130]  89 nM
7. Cc1nc(Nc2cc(NC(C)C)c(C(=O)NC[C@@H](F)C(C)(C)O)cn2)ccc1C#N [Example 63]  92 nM
8. CC(C)(O)[C@H](F)CNC(=O)c1cnc(Nc2ncc(C#N)cc2F)cc1Nc1ccc(C(N)=O)cc1 [Example 142]  93 nM
9. CC(=O)Nc1nc(Nc2cc(NC(C)C)c(C(=O)NC[C@@H](F)C(C)(C)O)cn2)ncc1C#N [Example 34]  122 nM
10. CC(C)(O)[C@H](F)CNC(=O)c1cnc(Nc2ncc(C#N)cc2Cl)cc1Nc1ccc(-n2cccn2)cc1 [Example 168]  122 nM
11. CC(C)(O)[C@H](F)CNC(=O)c1cnc(Nc2ncc(C#N)cc2F)cc1Nc1cccc(C(N)=O)c1 [Example 135]  129 nM
12. CC(C)Nc1cc(Nc2ncc(C#N)cc2F)ncc1C(=O)N[C@H]1CC[C@H](C(=O)NC(C)C)CC1 [Example 116]  130 nM
13. CC(C)Nc1cc(Nc2nc(OC3CCNCC3)ncc2Cl)ncc1C(=O)NC[C@@H](F)C(C)(C)O [Example 41]  160 nM
14. CCNC(=O)[C@H]1CC[C@H](NC(=O)c2cnc(Nc3ncc(C#N)cc3F)cc2NC(C)C)CC1 [Example 30, 6-((5-cyano-3-fluoropyridin-2-yl)amino)-N-((1R,4R)-4-(ethylcarbamoyl)cyclohexyl)-4-(isopropylamino)nicotinamide]  163 nM
15. CC(C)Nc1cc(Nc2ccc(C#N)cn2)ncc1C(=O)NC1CCC(O)(c2ccnn2C)CC1 (stereo not shown) [Example 31, 6-((5-cyanopyridin-2-yl)amino)-N-((1s,4s)-4-hydroxy-4-(1-methyl-1H-pyrazol-5-yl)cyclohexyl)-4-(isopropylamino)nicotinamide]  170 nM
16. CC(C)Nc1cc(Nc2ncc(C#N)cc2F)ncc1C(=O)N[C@H]1CC[C@H](C(=O)NC2CC2)CC1 [Example 118]  172 nM
17. CS(=O)(=O)[C@H]1CC[C@H](NC(=O)c2cnc(Nc3ncc(C#N)cc3Cl)cc2NC2CC2)CC1 [Example 151]  187 nM
18. CC(C)(F)CNc1cc(Nc2ncc(C#N)cc2Cl)ncc1C(=O)NC1CCC(C(C)(C)O)CC1 (stereo not shown) [Example 103]  195 nM
19. CS[C@H]1CC[C@H](NC(=O)c2cnc(Nc3ncc(C#N)cc3F)cc2NC(C)C)CC1 [Example 32, 6-((5-cyano-3-fluoropyridin-2-yl)amino)-4-(isopropylamino)-N-((1R,4R)-4-(methylthio)cyclohexyl)nicotinamide]  199 nM
20. CC(C)(O)[C@H](F)CNC(=O)c1cnc(Nc2ncc(C#N)cc2F)cc1Nc1cccc(NS(C)(=O)=O)c1 [Example 134]  203 nM
21. CCn1ncc(Nc2cc(NC(C)C)c(C(=O)NC[C@@H](F)C(C)(C)O)cn2)n1 [Example 72]  246 nM
22. CC(C)CNc1cc(Nc2ncc(C#N)cc2Cl)ncc1C(=O)NC[C@@H](F)C(C)(C)O [Example 155]  309 nM
23. CC(C)(O)[C@H](F)CNC(=O)c1cnc(Nc2ncc(C#N)cc2Cl)cc1Nc1cccc(C#N)c1 [Example 162]  330 nM
24. CC(C)(O)[C@H](F)CNC(=O)c1cnc(Nc2ncc(C#N)cc2Cl)cc1Nc1ccc2ncsc2c1 [Example 153]  439 nM
25. Cn1nnnc1-c1ccc(Nc2cc(Nc3ncc(C#N)cn3)ncc2C(=O)NC[C@@H](F)C(C)(C)O)cc1 [Example 147]  439 nM
26. CC(C)(O)[C@H](F)CNC(=O)c1cnc(Nc2ncc(C#N)cc2Cl)cc1NC1CCOCC1F (stereo partly shown) [Example 79]  494 nM
27. CC(C)(O)[C@H](F)CNC(=O)c1cnc(Nc2ncc(C#N)cc2F)cc1NC12CC3CC(CC(C3)C1)C2 [Example 119]  736 nM
28. CC(C)Nc1cc(Nc2ncncc2N)ncc1C(=O)NC[C@@H](F)C(C)(C)O [Example 132]  862 nM

Same assay, conditions: Homo sapiens, PBMC, 5 h, 10 μg/ml lipoteichoic acid for 5 hours, IL-6 by ELISA, values without asterisk, read-out: Cell IC50

In order of rising IC50:
1. CC(C)(O)[C@H](F)CNC(=O)c1cnc(Nc2nc(-c3cccnc3)cs2)cc1NC1CC1 [Example 23, 4-(cyclopropylamino)-N-((2R)-2-fluoro-3-hydroxy-3-methylbutyl)-6-((4-(3-pyridinyl)-1,3-thiazol-2-yl)amino)nicotinamide]  32 nM
2. CC(C)(O)[C@H](F)CNC(=O)c1cnc(Nc2ncc(C#N)cc2Cl)cc1NC1CC1 [Example 14, 6-((3-chloro-5-cyano-2-pyridinyl)amino)-4-(cyclopropylamino)-N-((2R)-2-fluoro-3-hydroxy-3-methylbutyl)nicotinamide]  43 nM
3. CC(C)Nc1cc(Nc2ncncc2Cl)ncc1C(=O)NC[C@@H](F)C(C)(C)O [Example 52]  74 nM
4. C[C@@H](CO)Nc1cc(Nc2ncc(C#N)cc2Cl)ncc1C(=O)NC[C@@H](F)C(C)(C)O [Example 50]  85 nM
5. CC(C)Nc1cc(Nc2ccc(C#N)c(N3CCC(O)C3)n2)ncc1C(=O)NC[C@@H](F)C(C)(C)O (stereo in doubt) [Example 27, 6-((5-cyano-6-((3S)-3-hydroxy-1-pyrrolidinyl)-2-pyridinyl)amino)-N-((2R)-2-fluoro-3-hydroxy-3-methylbutyl)-4-(isopropylamino)nicotinamide]  133 nM
6. CC(C)Nc1cc(Nc2ccnc(N3CCC(F)C3)n2)ncc1C(=O)NC[C@@H](F)C(C)(C)O (stereo partly drawn) [Example 26, N-((2R)-2-fluoro-3-hydroxy-3-methylbutyl)-6-((2-(3-fluoro-1-pyrrolidinyl)-4-pyrimidinyl)amino)-4-(isopropylamino)nicotinamide]  139 nM
7. CC(C)Nc1cc(Nc2ccnc(NC3CC3)n2)ncc1C(=O)NC[C@@H](F)C(C)(C)O [Example 24, 6-((2-(cyclopropylamino)-4-pyrimidinyl)amino)-N-((2R)-2-fluoro-3-hydroxy-3-methylbutyl)-4-(isopropylamino)nicotinamide]  312 nM
8. CC(=O)N[C@H]1CC[C@H](NC(=O)c2cnc(Nc3ccc(C#N)cn3)cc2NC2CCOCC2F)CC1 (stereo partly drawn) [Example 11, N-((1R,4R)-4-acetamidocyclohexyl)-6-((5-cyanopyridin-2-yl)amino)-4-(((3 S,4R)-3-fluorotetrahydro-2H-pyran-4-yl)amino)nicotinamide]  320 nM
9. CC(C)(O)[C@H](F)CNC(=O)c1cnc(Nc2ccncn2)cc1NC1CC1 [Example 21, 4-(cyclopropylamino)-N-((2R)-2-fluoro-3-hydroxy-3-methylbutyl)-6-(4-pyrimidinylamino)nicotinamide]  331 nM
10. CC(C)(O)[C@H](F)CNC(=O)c1cnc(Nc2ncc(C#N)cc2F)cc1NC1CCCOC1 (stereo partly shown) [Example 97]  418 nM
11. CC(C)Nc1cc(Nc2ccc(C#N)cn2)ncc1C(=O)N[C@H]1CC[C@H](C(=O)NC2CC2)CC1 [Example 6, 6-((5-cyanopyridin-2-yl)amino)-N-((1R,4R)-4-(cyclopropylcarbamoyl)cyclohexyl)-4-(isopropylamino)nicotinamide]  648 nM

Same assay, conditions: human PBMC, 10 μg/ml lipoteichoic acid for 5 hours, IL-6 by ELISA; values without asterisk; read-out: Cell IC50

Compound CC(C)(O)[C@H](F)CNC(=O)c1cnc(Nc2ncc(C#N)cc2F)cc1NC1CCCOC1 (stereo partly shown) [Example 98] has an IC50 of 690 nM.
